Target: T1, human TGR5 (Homo sapiens, UniProt Q8TDU6)
T1 construct: expressed in transfected cells; host or cells: HEK293
T1 sequence (Q8TDU6 1-330): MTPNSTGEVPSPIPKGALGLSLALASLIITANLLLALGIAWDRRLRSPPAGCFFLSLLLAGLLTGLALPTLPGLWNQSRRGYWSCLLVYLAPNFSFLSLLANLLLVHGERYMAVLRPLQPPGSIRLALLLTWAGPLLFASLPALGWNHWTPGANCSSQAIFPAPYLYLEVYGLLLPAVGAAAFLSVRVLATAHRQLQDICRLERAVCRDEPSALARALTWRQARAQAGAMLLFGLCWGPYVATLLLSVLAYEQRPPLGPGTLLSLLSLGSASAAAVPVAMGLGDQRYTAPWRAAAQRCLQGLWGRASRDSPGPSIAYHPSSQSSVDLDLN
Experiment: Cell-based TGR5 assay (cAMP generation, HTRF)
Conditions: HEK293 cells stably transfected with human TGR5; cAMP by HTRF; 30 minutes at 37° C.; read-out: pEC50 Human TGR5 (converted)
In short: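 First, compounds in 3-fold serial dilution were placed in HBSS with 10 mM HEPES pH 7.4 and 0.5 mM IBMX. Next, human TGR5-expressing HEK293 cells were added and incubated 30 min at 37° C. Finally, cAMP was detected by HTRF and pEC50 derived by logistic fitting.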

EC50 [nM] | SMILES
< 100 | O=C(CCC1CN(S(=O)(=O)c2ccc(Cl)c(COC3(c4cnccc4-c4ccccc4OC4CC4)CC3)c2)C1)NC[C@H](O)[C@@H](O)[C@H](O)[C@H](O)CO [Compound I-448, 3-{1-[4-chloro-3-({1-[4-(2-cyclopropoxyphenyl)pyridin-3-yl]cyclopropoxy}methyl)benzenesulfonyl]azetidin-3-yl}-N-[(2S,3R,4R,5R)-2,3,4,5,6-pentahydroxyhexyl]propanamide]
< 100 | CN(C[C@H](O)[C@@H](O)[C@H](O)[C@H](O)CO)C(=O)NS(=O)(=O)NCCCCc1cc(Cl)c(COC2(c3cnccc3-c3ccccc3OC3CC3)CC2)cc1Cl (stereo in doubt) [Compound I-194, 1-({4-[2,5-dichloro-4-({1-[4-(2-cyclopropoxyphenyl)pyridin-3-yl]cyclopropoxy}methyl)phenyl]butyl}sulfamoyl)-3-methyl-3-[(2S,3R,4R,5R)-2,3,4,5,6-pentahydroxyhexyl]urea]
< 100 | Cc1ccc(C(C)CCCC(=O)N(CCS(C)(=O)=O)C[C@H](O)[C@@H](O)[C@H](O)[C@H](O)CO)cc1CNC1(c2cnccc2-c2ccccc2OC2CC2)CC1 (stereo partly drawn) [Compound I-369, 5-{3-[({1-[4-(2-cyclopropoxyphenyl)pyridin-3-yl]cyclopropyl}amino)methyl]-4-methylphenyl}-N-(2-methanesulfonylethyl)-N-[(2S,3R,4R,5R)-2,3,4,5,6-pentahydroxyhexyl]hexanamide]
< 100 | O=C1CCO[C@H]([C@@H](O)[C@H](O)[C@H](O)CO)CN1CCCCc1cc(Cl)c(COC2(c3cnccc3-c3ccccc3OC3CC3)CC2)cc1Cl [Compound I-78, (S)-4-(4-(2,5-dichloro-4-((1-(4-(2-cyclopropoxyphenyl)pyridin-3-yl)cyclopropoxy)methyl)phenyl)butyl)-2-((1S,2R,3R)-1,2,3,4-tetrahydroxybutyl)-1,4-oxazepan-5-one]
126 to 1000 | Cc1ccc(SCCCCN(CCCS(C)(=O)=O)C(=O)[C@@H](O)[C@@H](O)[C@H](O)[C@@H](O)CO)cc1CNC1(c2cnccc2-c2ccccc2OC2CC2)CC1 [Compound I-548, (2S,3S,4R,5S)-N-[4-({3-[({1-[4-(2-cyclopropoxyphenyl)pyridin-3-yl]cyclopropyl}amino)methyl]-4-methylphenyl}sulfanyl)butyl]-2,3,4,5,6-pentahydroxy-N-(3-methanesulfonylpropyl) hexanamide]
< 100 | CN(CCCCNS(=O)(=O)c1ccc(Cl)c(COC2(c3cnccc3-c3ccccc3OC3CC3)CC2)c1)C(=O)[C@@H](O)[C@@H](O)[C@H](O)[C@@H](O)CO [Compound I-460, (2S,3S,4R,5S)-N-{4-[4-chloro-3-({1-[4-(2-cyclopropoxyphenyl)pyridin-3-yl]cyclopropoxy}methyl)benzenesulfonamido]butyl}-2,3,4,5,6-pentahydroxy-N-methylhexanamide]
126 to 1000 | Cc1ccc(C(C)CCCC(=O)N(CCC(N)=O)C[C@H](O)[C@@H](O)[C@H](O)[C@H](O)CO)cc1CNC1(c2cnccc2-c2ccccc2OC2CC2)CC1 (stereo partly drawn) [Compound I-359, N-(2-carbamoylethyl)-5-{3-[({1-[4-(2-cyclopropoxyphenyl)pyridin-3-yl]cyclopropyl}amino)methyl]-4-methylphenyl}-N-[(2S,3R,4R,5R)-2,3,4,5,6-pentahydroxyhexyl]hexanamide]
< 100 | C[C@H](CCCCNC(=O)NC[C@H](O)[C@@H](O)[C@H](O)[C@H](O)CO)c1ccc(Cl)c(CNC2(c3cnccc3-c3ccccc3OC3CC3)CC2)c1 (single isomer, unassigned) [Compound I-256]
1260 to 10000 | CC(C)c1ccc(SCCCC(=O)N(C)C[C@H](O)[C@@H](O)[C@H](O)[C@H](O)CO)cc1COC1(c2cnccc2-c2ccccc2OC2CC2)CC1 [Compound I-620, 4-{[3-({1-[4-(2-cyclopropoxyphenyl)pyridin-3-yl]cyclopropoxy}methyl)-4-(propan-2-yl)phenyl]sulfanyl}-N-methyl-N-[(2S,3R,4R,5R)-2,3,4,5,6-pentahydroxyhexyl]butanamide]
< 100 | O=C(NCCCCc1cc(Cl)c(CNC2(c3cnccc3-c3ccccc3OC3CC3)CC2)cc1Cl)NC[C@H](O)[C@@H](O)[C@H](O)[C@H](O)CO [Compound I-138, 1-(4-{2,5-dichloro-4-[({1-[4-(2-cyclopropoxyphenyl)pyridin-3-yl]cyclopropyl}amino)methyl]phenyl}butyl)-3-[(2S,3R,4R,5R)-2,3,4,5,6-pentahydroxyhexyl]urea]
< 100 | CN(C[C@H](O)[C@@H](O)[C@H](O)[C@H](O)CO)C(=O)CCCCc1cc(Cl)c(CNC2(c3cnccc3-c3ccccc3OC3COC3)CC2)cc1Cl [Compound I-177, 5-(2,5-dichloro-4-{[(1-(4-[2-(oxetan-3-yloxy)phenyl]pyridin-3-yl}cyclopropyl)amino]methyl)phenyl)-N-methyl-N-[(2S,3R,4R,5R)-2,3,4,5,6-pentahydroxyhexyl]pentanamide]
< 100 | CC(=O)NCCCCN(CCCC(C)c1ccc(Cl)c(CNC2(c3cnccc3-c3ccccc3OC3CC3)CC2)c1)C(=O)[C@@H](O)[C@@H](O)[C@H](O)[C@@H](O)CO (stereo partly drawn) [Compound I-290, (2S,3S,4R,5S)-N-(4-{4-chloro-3-[({1-[4-(2-cyclopropoxyphenyl)pyridin-3-yl]cyclopropyl}amino)methyl]phenyl}pentyl)-N-(4-acetamidobutyl)-2,3,4,5,6-pentahydroxyhexanamide]
< 100 | Cc1cc(COC2(c3cnccc3-c3ccccc3OC3CC3)CC2)c(Cl)cc1CCCCNC(=O)N(CCO)C[C@H](O)[C@@H](O)[C@H](O)[C@H](O)CO [Compound I-107, 1-{4-[5-chloro-4-({1-[4-(2-cyclopropoxyphenyl)pyridin-3-yl]cyclopropoxy}methyl)-2-methylphenyl]butyl}-3-(2-hydroxyethyl)-3-[(2S,3R,4R,5R)-2,3,4,5,6-pentahydroxyhexyl]urea]
< 100 | O=C(COCC1CCN(S(=O)(=O)c2ccc(Cl)c(COC3(c4cnccc4-c4ccccc4OC4CC4)CC3)c2)C1)NC[C@H](O)[C@@H](O)[C@H](O)[C@H](O)CO (stereo partly drawn) [Compound I-455, 2-({1-[4-chloro-3-({1-[4-(2-cyclopropoxyphenyl)pyridin-3-yl]cyclopropoxy}methyl)benzenesulfonyl]pyrrolidin-3-yl}methoxy)-N-[(2S,3R,4R,5R)-2,3,4,5,6-pentahydroxyhexyl]acetamide]
126 to 1000 | CN(C[C@H](O)[C@@H](O)[C@H](O)[C@H](O)CO)C(=O)NCCCCc1cc(Cl)c(CNC2(c3cnccc3-c3ccccc3OC3COC3)CC2)cc1Cl [Compound I-175, 1-[4-(2,5-dichloro-4-{[(1-{4-[2-(oxetan-3-yloxy)phenyl]pyridin-3-yl}cyclopropyl)amino]methyl}phenyl)butyl]-3-methyl-3-[(2S,3R,4R,5R)-2,3,4,5,6-pentahydroxyhexyl]urea]
< 100 | CC(=O)NCCCCN(C)S(=O)(=O)c1ccc(Cl)c(COC2(c3cnccc3-c3ccccc3OC3CC3)CC2)c1 [Compound I-766, N-(4-((4-chloro-3-((1-(4-(2-cyclopropoxyphenyl)pyridin-3-yl)cyclopropoxy)methyl)-N-methylphenyl)sulfonamido)butyl)acetamide]
< 100 | CC(CCCC(=O)N(CCO)C[C@@H](O)[C@H](O)[C@@H](O)[C@@H](O)CO)c1ccc(Cl)c(CNC2(c3cnccc3-c3ccccc3OC3CC3)CC2)c1 (stereo partly drawn) [Compound I-331, 5-{4-chloro-3-[({1-[4-(2-cyclopropoxyphenyl)pyridin-3-yl]cyclopropyl}amino)methyl]phenyl}-N-(2-hydroxyethyl)-N-[(2R,3S,4S,5S)-2,3,4,5,6-pentahydroxyhexyl]hexanamide]
126 to 1000 | Cc1ccc(SCCCCN(CCOCCO)C(=O)[C@@H](O)[C@@H](O)[C@H](O)[C@@H](O)CO)cc1COC1(c2cnccc2-c2ccccc2OC2CC2)CC1 [Compound I-551, (2S,3S,4R,5S)-N-(4-{[3-({1-[4-(2-cyclopropoxyphenyl)pyridin-3-yl]cyclopropoxy}methyl)-4-methylphenyl]sulfanyl}butyl)-2,3,4,5,6-pentahydroxy-N-[2-(2-hydroxyethoxy)ethyl]hexanamide]
< 100 | Fc1ccc(-c2ccncc2C2(NCc3cc(Cl)ccc3Cl)CC2)c(OC2CC2)c1 [Compound I-18, 1-[4-(2-cyclopropoxy-4-fluorophenyl)pyridin-3-yl]-N-[(2,5-dichlorophenyl)methyl]cyclopropan-1-amine]
126 to 1000 | Cc1ccc(SCCCCN(C(=O)[C@@H](O)[C@@H](O)[C@H](O)[C@@H](O)CO)C2CCOCC2)cc1CNC1(c2cnccc2-c2ccccc2OC2CC2)CC1 [Compound I-560, (2S,3S,4R,5S)-N-[4-({3-[({1-[4-(2-cyclopropoxyphenyl)pyridin-3-yl]cyclopropyl}amino)methyl]-4-methylphenyl}sulfanyl)butyl]-2,3,4,5,6-pentahydroxy-N-(oxan-4-yl)hexanamide]
< 100 | C[C@H](CCCC(=O)NC[C@H](O)[C@@H](O)[C@H](O)[C@H](O)CO)c1ccc(Cl)c(CNC2(c3cnccc3-c3ccccc3OC3CC3)CC2)c1 (single isomer, unassigned) [Compound I-315]
< 100 | CN(CCCCCNC(=O)N[C@@H](CO)[C@@H](O)[C@H](O)[C@H](O)CO)S(=O)(=O)c1ccc(Cl)c(COC2(c3cnccc3-c3ccccc3OC3CC3)CC2)c1 (stereo in doubt) [Compound I-405, 1-{5-[N-methyl4-chloro-3-({1-[4-(2-cyclopropoxyphenyl)pyridin-3-yl]cyclopropoxy}methyl)benzenesulfonamido]pentyl}-3-[(2S,3R,4S,5R)-1,3,4,5,6-pentahydroxyhexan-2-yl]urea]

— patent US12084472B2 (Ardelyx, Inc., priority 2015, dated 2024)
